Test results published in patent US8829194B2, “Crystalline forms of the sodium salt of (4-{4-[5-(6-trifluoromethyl-pyridin-3-ylamino)-pyridin-2-yl]-phenyl}-cyclohexyl)-acetic acid” (Novartis AG, priority 2010, dated 2014).
Where two headings read alike, the source gives them in different places.

Columns and labels:
Assay type in all cases: physicochemical
[1] = Humidity microbalance analysis (VTI), moisture sorption at 25° C.; conditions: for hygroscopicity / moisture uptake in words: variations in humidity
Source text: Thus, Modification C retains a stable weight from 0% relative humidity to 80% relative humidity while Modification A loses water with decreasing humidity and gains moisture with increasing humidity. With Modification C, a re-hydration step and the possible variability in water content between batches may thus be eliminated.
Modification N is particularly suitable for industrial scale-up. It is a crystalline anhydrous form.
Modification O is particularly suitable for industrial scale-up. It is a crystalline anhydrous form.

[2] = Dynamic vapor absorption experiment; conditions: dried product of Example 20
Description: 2.0 g of Modification A, 17 mL of THF and 17 mL of 200-proof ethanol are added to a jacketed 100-mL glass reactor equipped with an overhead stirrer. The mixture is heated to approximately 50° C. with vigorous agitation to obtain a clear solution. To the warm solution, 3 mL of heptanes are added. In a small glass vial, 0.02 g of seed particles (Modification C, prepared from a previous batch) are added to 1 mL of heptanes, and the slurry is sonicated for approximately 1 minute. The seed slurry is then added to the warm solution to obtain a turbid solution at 50° C. To the turbid solution, 35 mL of heptanes are added as follows. First, 5 mL of heptanes are added over a 30-min period, followed by 75-min hold. Subsequently, an additional 30 m L of heptanes are added over 1.5 hours. The resulting thick slurry is cooled to 10° C. in 50 minutes. The slurry is filtered by vacuum, and the wet cake is washed with 25 mL of anhydrous THF and dried at 65° C. and 10 mbar. […] Based on Karl Fisher analysis, the dried solid contained 3.6% water.

[3] = Water loss as a function of temperature by TG/DTA (loss on drying, thermal transitions); conditions: for LOD (thermal transitions): DTA signals, temperature at which the water is lost; for Loss On Drying (LOD) (%): total water loss by thermogravimetry, rt-295° C., 10°/min
Source text: (ii) Thermogravimetric/Differential Thermal Analysis (TG/DTA) […]
The data listed below show the total water loss (LOD by thermogravimetry (TG)) and thermal transitions (DTA signals) show the temperature at which the water is lost.

[4] = Vacuum thermogravimetric analysis (VTGA): drying and re-exposure to ambient conditions; conditions: for hygroscopicity in words: concluded from VTGA re-exposure; for time until sample mass decreases to a steady value (drying complete): vacuum 50 mbar, 50° C., wet solid
Description: The wet solid obtained by filtering the crystallization slurry is placed in a cup placed in a cell (i.e., a small chamber) and suspended form a microbalance; vacuum is applied to the cell, and the chamber is subsequently heated. The sample mass is monitored and recorded continuously, indicating when the sample drying is complete and if moisture uptake occurs when the cell is opened to the ambient atmosphere.
1.1149 g of Modification A solid, 0.089 g of distilled water and 10 mL of acetonitrile are added to a glass vial. The mixture is stirred vigorously at 20° C. for 18 hours. The mixture is filtered using vacuum and the wet cake is dried in a VTGA cell at approximately 50° C. and 20 mbar for approximately 5 hours.
1.2137 g of Modification A solids and 15 mL of anhydrous THF, 99.9%, are added to a glass vial. The mixture is heated to 45° C. with vigorous stirring. After slurrying at 45° C. for approximately 19 hours, the sample is filtered by vacuum and the wet cake is dried using the VTGA at approximately 50° C. and 20 mbar for approximately 5 hours.

[5] = Physical stability of the crystalline forms (relative humidity, absorption-desorption isotherm FIG. 1, temperature, storage); conditions: for physical stability (change into another form): storage / ambient conditions
[6] = Hygroscopicity (statement, no method given)
[7] = Solubility in common process solvents

Mass uptake (% water absorbed) ([1]; 0 % residual humidity) [%] | Mass uptake (% water absorbed) ([1]; 10 % residual humidity) [%] | Mass uptake (% water absorbed) ([1]; 50 % residual humidity) [%] | Mass uptake (% water absorbed) ([1]; 60 % residual humidity) [%] | Mass uptake (% water absorbed) ([1]; 70 % residual humidity) [%] | Mass uptake (% water absorbed) ([1]; 79 % residual humidity) [%] | Mass uptake (% water absorbed) ([1]; 90 % residual humidity) [%] | Mass uptake (% water absorbed) ([1]; 95 % residual humidity) [%] | Loss On Drying (LOD) (%) [3] [%] | time until sample mass decreases to a steady value (drying complete) [4] | Compound | hygroscopicity / moisture uptake in words [1] | physical stability (change into another form) [5] | other results
0.0 | 0.0 | 0.1 | 0.2 | 0.4 | 0.8 | 12.0 | 15.6 | 2.8 | less than 1 hours | O=C([O-])C[C@H]1CC[C@H](c2ccc(-c3ccc(Nc4ccc(C(F)(F)F)nc4)cn3)cc2)CC1.[Na+] [Modification C, sodium salt of (4-{4-[5-(6-trifluoromethyl-pyridin-3-ylamino)-pyridin-2-yl]-phenyl}-cyclohexyl)-acetic acid] | does not lose or gain moisture | does not change into another form under ambient conditions | relative humidity at which moisture gain starts / becomes significant ([1]; listed as Form C): > 80 % relative humidity; hygroscopicity in words [2]: much lower hygroscopicity than Modification A; mass uptake of moisture ([2]; from 0 to 80% relative humidity): 0.3%; LOD (thermal transitions) ([3]; listed as C): 126 °C; LOD (thermal transitions) ([3]; listed as modification C): 126 °C; mass change upon opening the cell to the ambient environment ([4]; Example 17, after drying at 50° C. and 20 mbar, 30%-56% relative humidity): no mass change occurs; mass gain when the dried solid was exposed to air ([4]; Example 18, approximately 15 hours at 20° C. and 43-59% relative humidity): No mass gain was observed; sample mass change upon opening the cell ([4]; after drying, 1000 mbar, ambient temperature): the sample mass does not change; hygroscopicity in words ([4]; listed as Form C): not hygroscopic; temperature above which water is lost ([5]; heating): over 85 °C
– | – | – | – | – | – | – | – | – | – | O=C([O-])C[C@H]1CC[C@H](c2ccc(-c3ccc(Nc4ccc(C(F)(F)F)nc4)cn3)cc2)CC1.[Na+] [Modification K, sodium salt of (4-{4-[5-(6-trifluoromethyl-pyridin-3-ylamino)-pyridin-2-yl]-phenyl}-cyclohexyl)-acetic acid] | – | – | LOD (thermal transitions) ([3]; listed as K): 134.5 °C; Loss On Drying (LOD) (%) ([3]; listed as K): 2.4%; hygroscopicity in words [6]: low hygroscopicity
0.0 | 3.9 | 12.0 | 12.0 | 17.3 | 17.5 | 17.4 | 17.1 | 9.1 | about 18 hours | O=C([O-])C[C@H]1CC[C@H](c2ccc(-c3ccc(Nc4ccc(C(F)(F)F)nc4)cn3)cc2)CC1.[Na+] [Modification A, sodium salt of (4-{4-[5-(6-trifluoromethyl-pyridin-3-ylamino)-pyridin-2-yl]-phenyl}-cyclohexyl)-acetic acid] | takes up much more moisture compared to Modification C | converts to another form in samples that have not been refrigerated | relative humidity at which moisture gain starts / becomes significant [1]: 10 % relative humidity; total mass gain due to moisture uptake upon opening the cell ([4]; after drying, 1000 mbar, ambient temperature, plateau at ca. 90 hours): 10.4%; hygroscopicity in words [4]: highly hygroscopic; hygroscopicity in words ([5]; sorption profile FIG. 1): very hygroscopic; solubility in common process solvents [7]: relatively low
